The source made the active and inactive calls. The calls are words filed in the database; no cut-off is given here.
Legend:
[1] = molecular target: T1, Indoleamine 2,3-dioxygenase 1 (Homo sapiens, UniProt P14902); assay: Inhibition of human Indoleamine 2,3-dioxygenase using L-tryptophan as substrate by emission fluorescence analysis
[2] = molecular target: T1, Indoleamine 2,3-dioxygenase 1; assay: Inhibition of Indoleamine 2,3-dioxygenase in human HeLa cells in presence of L-tryptophan as substrate after 24 hrs in presence of L-tryptophan; type: cell-based
[3] = AUC (0 to infinity) in Sprague-Dawley rat plasma at 2 mg/kg, iv by LC-MS/MS analysis; type: ADME, organism-based; design: dose 2 mg/kg, route intravenous, time infinity
[4] = AUC (0 to infinity) in Sprague-Dawley rat plasma at 10 mg/kg, po by LC-MS/MS analysis; type: ADME, organism-based; design: dose 10 mg/kg, route oral, time infinity
[5] = (§1) Volume of distribution at steady state in Sprague-Dawley rat plasma at 2 mg/kg, iv by LC-MS/MS analysis; type: ADME, organism-based; details: Sprague-Dawley, plasma, read-out: Vdss
[6] = Clearance in Sprague-Dawley rat plasma at 2 mg/kg, iv by LC-MS/MS analysis; type: ADME, organism-based
[7] = Cmax in Sprague-Dawley rat plasma at 10 mg/kg, po by LC-MS/MS analysis; type: ADME, organism-based; design: dose 10 mg/kg, route oral
[8] = Half life in Sprague-Dawley rat plasma at 10 mg/kg, po by LC-MS/MS analysis; type: ADME, organism-based
[9] = Tmax in Sprague-Dawley rat plasma at 10 mg/kg, po by LC-MS/MS analysis; type: ADME, organism-based
[10] = Oral bioavailability in Sprague-Dawley rat plasma at 10 mg/kg by LC-MS/MS analysis; type: ADME, organism-based
[11] = (§2) Half life in Sprague-Dawley rat plasma at 2 mg/kg, iv by LC-MS/MS analysis; type: ADME, organism-based; details: Sprague-Dawley, plasma
Rattus norvegicus [12] = assay: as §1; type: ADME, organism-based; details: in vivo
Rattus norvegicus [13] = assay: as §2; type: ADME, organism-based; details: in vivo
B16-F10 = assay: Antitumor activity against mouse B16F10 cells xenografted in mouse at 400 mg/kg bid dosed daily for 2 weeks; type: functional, organism-based
[14] = Drug degradation in Sprague-Dawley rat plasma within 5 mins; type: ADME, cell-free; details: read-out: Drug degradation

T1 sequence (P14902 whole entry): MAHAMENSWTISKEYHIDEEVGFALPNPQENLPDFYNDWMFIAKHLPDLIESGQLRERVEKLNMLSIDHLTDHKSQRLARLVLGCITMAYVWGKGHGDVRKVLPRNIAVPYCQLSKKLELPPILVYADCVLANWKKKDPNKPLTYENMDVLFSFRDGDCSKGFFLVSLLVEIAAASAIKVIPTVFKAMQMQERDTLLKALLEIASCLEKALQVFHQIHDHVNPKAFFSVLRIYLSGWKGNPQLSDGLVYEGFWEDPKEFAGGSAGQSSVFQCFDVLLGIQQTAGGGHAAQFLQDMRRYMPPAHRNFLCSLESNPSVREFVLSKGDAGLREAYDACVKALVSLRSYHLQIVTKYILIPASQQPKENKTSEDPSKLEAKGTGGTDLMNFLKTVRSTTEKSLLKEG

SMILES	IC50 [1]	EC50 [2]	AUC(0-inf) [3]	AUC(0-inf) [4]	Cmax [7]	half-life [8]	Tmax [9]	bioavailability [10]	other results
Nc1nc2cc(S(=O)(=O)NNc3ccc(Br)cc3)ccc2[nH]1	122 nM	68.4 nM	–	–	–	–	–	–	–
O=C(CCN1CCOCC1)Nc1ccc(S(=O)(=O)NNc2ccc(Br)cc2)cc1	77 nM	217 nM	–	–	–	–	–	–	–
CC1(C)C(=O)Nc2ccc(S(=O)(=O)NNc3ccc(Br)cc3)cc21	69.9 nM	36.4 nM	364 ng·h/mL	304 ng·h/mL	72 ng/mL	4.7 h	1.3 h	17%	Vd [5]: 13 L/kg; clearance [6]: 93.3 mL/min/kg; half-life [11]: 2.4 h
O=C1CCc2cc(S(=O)(=O)NNc3ccc(Br)cc3)ccc2N1	72.7 nM	67 nM	1350 ng·h/mL	763 ng·h/mL	63 ng/mL	8.9 h	5.3 h	11%	Vdss (Rattus norvegicus [12]): 20.8 L/kg; t1/2 (Rattus norvegicus [13]): 2.7 h
O=S(=O)(NNc1ccc(Br)cc1)c1ccc2[nH]c(O)nc2c1	57.3 nM	63.1 nM	594 ng·h/mL	382 ng·h/mL	124 ng/mL	3 h	1.3 h	13%	Vd [5]: 6 L/kg; clearance [6]: 57.1 mL/min/kg; half-life [11]: 0.8 h
O=C1Nc2ccc(S(=O)(=O)NNc3ccc(Br)cc3)cc2C1(F)F	52.3 nM	30.6 nM	–	–	–	–	–	–	–
O=c1ccc2cc(S(=O)(=O)NNc3ccc(Br)cc3)ccc2[nH]1	85 nM	211 nM	–	–	–	–	–	–	–
CC(=O)N1CCc2cc(S(=O)(=O)NNc3ccc(Br)cc3)ccc21	34.6 nM	231 nM	–	–	–	–	–	–	–
Cn1c(=O)n(C)c2cc(S(=O)(=O)NNc3ccc(Br)cc3)ccc21	47 nM	135 nM	–	–	–	–	–	–	–
O=C1CCCc2cc(S(=O)(=O)NNc3ccc(Br)cc3)ccc2N1	112 nM	195 nM	–	–	–	–	–	–	–
CN1C(=O)Cc2cc(S(=O)(=O)NNc3ccc(Br)cc3)ccc21	75.8 nM	365 nM	–	–	–	–	–	–	–
O=C1CCCN1c1ccc(S(=O)(=O)NNc2ccc(Br)cc2)cc1	68.1 nM	89.6 nM	5580 ng·h/mL	9730 ng·h/mL	2050 ng/mL	1.7 h	4 h	35%	Vd [5]: 1 L/kg; clearance [6]: 6.3 mL/min/kg; half-life [11]: 1.5 h
CC(=O)Nc1ccc(S(=O)(=O)NNc2ccc(Br)cc2)cc1	–	–	1740 ng·h/mL	3220 ng·h/mL	1190 ng/mL	2.7 h	0.7 h	37%	Vd [5]: 1.5 L/kg; clearance [6]: 19.6 mL/min/kg; Activity (B16-F10): inactive; half-life [11]: 3.5 h
O=C1Nc2ccc(S(=O)(=O)NNc3ccc(Br)cc3)cc2C1=O	> 10000 nM	–	–	–	–	–	–	–	–
O=C(O)c1cccc(S(=O)(=O)NNc2ccc(Br)cc2)c1	–	–	–	–	–	–	–	–	metabolised at 5 min [14]: 80%

Reference: ChEMBL document CHEMBL3763120, “Phenyl Benzenesulfonylhydrazides Exhibit Selective Indoleamine 2,3-Dioxygenase Inhibition with Potent in Vivo Pharmacodynamic Activity and Antitumor Efficacy” (J Med Chem, 2016)
